Assay results from patent US20040209799A1, “JAK/STAT pathway inhibitors and the uses thereof” (priority 2000, published 2004).

Molecular target: T1, JAK3 (Homo sapiens, UniProt P52333)
T1 sequence (P52333 1-1124): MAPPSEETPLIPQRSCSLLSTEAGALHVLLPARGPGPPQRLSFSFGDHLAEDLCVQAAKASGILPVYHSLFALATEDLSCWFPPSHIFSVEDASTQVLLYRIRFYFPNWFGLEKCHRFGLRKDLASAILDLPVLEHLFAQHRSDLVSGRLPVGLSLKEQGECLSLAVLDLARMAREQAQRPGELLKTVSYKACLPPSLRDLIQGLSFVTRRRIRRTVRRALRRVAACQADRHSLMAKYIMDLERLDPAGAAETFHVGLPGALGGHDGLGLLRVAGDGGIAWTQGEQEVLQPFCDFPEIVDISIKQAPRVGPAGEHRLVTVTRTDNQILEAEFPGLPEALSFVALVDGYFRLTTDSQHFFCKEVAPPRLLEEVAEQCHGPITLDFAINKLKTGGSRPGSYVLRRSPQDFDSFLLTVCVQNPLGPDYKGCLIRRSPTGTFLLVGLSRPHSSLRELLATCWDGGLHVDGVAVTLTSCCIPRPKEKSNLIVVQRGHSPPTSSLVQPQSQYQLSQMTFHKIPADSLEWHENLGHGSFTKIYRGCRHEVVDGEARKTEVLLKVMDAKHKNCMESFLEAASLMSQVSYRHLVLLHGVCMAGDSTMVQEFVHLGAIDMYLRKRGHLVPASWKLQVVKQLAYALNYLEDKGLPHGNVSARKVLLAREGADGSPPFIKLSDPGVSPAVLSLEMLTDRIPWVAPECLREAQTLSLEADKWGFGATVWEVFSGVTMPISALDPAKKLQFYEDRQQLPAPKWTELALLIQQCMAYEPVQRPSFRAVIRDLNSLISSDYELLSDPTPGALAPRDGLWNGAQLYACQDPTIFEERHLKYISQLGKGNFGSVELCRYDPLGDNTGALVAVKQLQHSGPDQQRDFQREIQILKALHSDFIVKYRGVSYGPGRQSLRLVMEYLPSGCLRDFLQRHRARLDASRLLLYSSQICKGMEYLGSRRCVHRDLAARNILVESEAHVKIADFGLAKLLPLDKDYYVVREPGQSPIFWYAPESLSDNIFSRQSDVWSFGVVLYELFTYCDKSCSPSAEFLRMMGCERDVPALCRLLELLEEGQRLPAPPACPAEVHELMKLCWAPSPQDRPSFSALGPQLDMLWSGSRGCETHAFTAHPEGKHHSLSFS
Experiment: tyrosine kinase ELISA, DBH inhibition of JAK3 (Example 6)
Type: biochemical
Conditions: GAS 1 biotinylated peptide substrate, 0-1250 μM ATP, 30 min at 37° C., read-out: inhibition constant (Ki)
Protocol: Nunc-Immunoplate Maxisorp flat-bottomed capture plates (Nalge Nunc International, Rochester, N.Y.) were coated with 80 μl/well anti-phosphotyrosine PY54 MAb antibody (Transduction Labs, Lexington, Ky.), diluted to 2 μg/ml in coating buffer (10 mM phosphate, pH 7.2+0.02% NaN3), and allowed to adsorb overnight at 4° C. The plates were washed (all washes are 4× with TBST: 25 mM Tris/HCl, pH 8.0, 150 mM NaCl+0.05% Tween-20), and 200 μl/well of blocking buffer (TBST+1% BSA) was added. The plates were sealed and incubated at 37° C. for 60 min or overnight at 4° C., and washed again.
Kinase reactions were run in 50 μl volumes with biotinylated peptide substrate in a round-bottom plate (Corning, Corning, N.Y.). Kinase reactions mixtures contained; 20 μl 50 μM GAS 1 biotinylated peptide (LCBiotin-EGPWLEEEEEAYGWMDF-amide), 0-1250 μM ATP in kinase buffer, 10 μl 50 mM MgCl2 in 2× kinase buffer (50 mM imidazole/HCl, 2 mM EDTA, 0.2 mM EDTA, 0.030% Brij-35, pH 6.8), 10 μl 0-50 μM DBH in water containing 0.2% Pluronic-104 and 3% dimethyl sulfoxide (DMSO), and 10 μl JAK3 enzyme diluted in kinase buffer. A phosphopeptide standard curve (0-10 nM) using kinase buffer as the diluent was also tested.
Kinase reactions were run for 30 min at 37° C., then stopped by adding 15 μl/well of 0.125 M EDTA, pH 6.8. […] Samples were read at A450-A620.

Ki: 0.286 ± 0.016 µM
Compound: NC1=NC(=O)C(=C2CCNC(=O)c3[nH]ccc32)N1 [DBH, 4-(2-amino-4-oxo-2-imidazolin-5-ylidene)-4,5,6,7-tetrahydropyrrolo(2,3-c) azepine-8-one]
